Laboratory results reported in patent US10154970B2, “Methods for immunomodulation of cancer and infectious disease therapy” (The Regents of the University of California, priority 2014, dated 2018).

Experiments:
IFN-γ [1] = assay: Example 6: IFN-γ ELISpot response to BP25 peptide in allograft-bearing mice; format: in vivo, C57BL/6 wild type mice; details: Day 28, TRIP 100 mg/kg + PV 100 μg
Experimental: IFN-γ immune response to scrambled and BP25 peptides following treatment with control (n=5), TRIP 100 mg/kg (n=6), PV 100 μg (n=6) and the TRIP+PV (n=6) combination. Each of four weekly 100 μg injections of peptide vaccine (PV) was preceded by three daily oral doses of TRIP. All mice were implanted with breast cancer allografts on Day 0, and spleens were collected for enzyme-linked immunosorbent spot (ELISpot) analysis on Day 28 following four weeks of treatment. The BP25 peptide is a 25-mer and the target antigen of the PV, while the scrambled peptide is a control peptide containing the same 25 amino acids in a scrambled arrangement.
On Day 0 of the study, all 32 mice were subcutaneously implanted with 1.0×10^6 mouse breast cancer cells expressing the PV target antigen (BP25). Two days later, mice began a three-day regimen of once daily 100 mg/kg TRIP administered orally. On Day 5, mice were administered their first weekly 100 μg dose of PV by subcutaneous injection. This treatment schedule was repeated for a total of four weeks. Tumor growth was assessed twice weekly. All mice were euthanized on Day 28 for the collection of serum and spleens to assess immune response to treatment. Immune response was assessed by performing IFN-γ ELISpot.

regulatory T cell (Treg) = details: chronic daily TRIP 50 mg/kg + two cycles of PV
Experimental: A total of 55 mixed-sex hMUC1.Tg C57BL/6 mice, starting at approximately five weeks of age, were treated with urethane as described above. Approximately six weeks after the last dose of urethane, mice were randomized into four treatment groups of approximately equal average weight: Control (n=22); TRIP (i.e., ospemifene) 50 mg/kg (n=16); tecemotide (L-BLP25) peptide vaccine (PV) (n=6); and TRIP+PV (n=11). At this time (Week 21), mice assigned to the […] began treatment with the first of two cycles consisting of eight weekly 10 μg doses each, with approximately four weeks between cycles. Cycle 1 was administered during Weeks 21-28, and Cycle 2 from Weeks 32-39. The PV was prepared and administered as described above. Mice in the TRIP groups began daily oral treatment in Week 31, which continued through the end of the study (approximately eight weeks of dosing). TRIP was prepared and administered as described above. Mice not assigned to TRIP treatment received daily oral doses of diluent. At the conclusion of the study, 48 h after the final dose of PV and 24 h after the last dose of TRIP, all mice were euthanized for the collection of serum and spleens, which were processed as described above for multiplex serum cytokine, Treg, and CTL analyses.

IFN-γ [2] = details: at 20 weeks (30 days), 5-mg/kg TRIP dose level
Experimental: Average serum IFN-γ concentrations following daily oral TRIP treatment for 30 (Week 20), 60 (Week 24), and 90 (Week 28) days at the indicated doses (mg/kg). Serum was analyzed by multiplex immunoassay 24 hours after the final TRIP dose at each time point.
(§1) Following induction of lung cancer as described (Wurz G T. et al., J. Transl. Med., 11:64 (2013)), mice were randomized into four treatment groups: Control; and TRIP (i.e., ospemifene) 5, 25, and 50 mg/kg (n=12, all groups). TRIP and control solutions were orally administered by gavage according to treatment group. After 30 days of treatment (Week 20), a total of 16 mice, four from each treatment group, were euthanized, and whole blood was collected by cardiac puncture. The remaining mice continued daily TRIP treatments. An additional 16 mice, four from each treatment group, were euthanized following 60 (Week 24) and 90 (Week 28) days of treatment, and whole blood and livers were collected. Serum samples were subjected to multiplex cytokine analysis for TH1 (IL-2, IL-12, IFN-γ, TNF-α), TH2 (IL-4, IL-5, IL-10, IL-13) and inflammatory cytokines (MIP-1α, IP-10, MIG, IL-1β, IL-6, KC).

IL-2 = IL-2 mRNA expression in Jurkat cells by qRT-PCR, normalized with GAPDH; format: cell-based, human
Experimental: FIG. 1. Interferon gamma (IFN-γ) and interleukin (IL)-2 expression in human Jurkat cells following exposure to TRIP in vitro. Jurkat cells (2×10^6) were treated with different concentrations of TRIP as indicated for 24 hours. (A) IFN-γ and (B) IL-2 mRNA expression levels were detected by quantitative real-time polymerase chain reaction (qRT-PCR) and normalized with the expression of GAPDH. *p<0.05, **p<0.01, ***p<0.001.
FIG. 3. Effects of TRIP alone and in combination with trifluoperazine (TFP) or LY294002 (LY) on IFN-γ and IL-2 in human Jurkat cells in vitro. Jurkat cells (2×10^6) were pretreated with different concentrations of (A, B) TFP (0, 0.1, 1.0, 5.0, and 10.0 μM) and (C, D) LY294002 (0, 1, 5, 10, and 25 μM) for 1 hour, then incubated with medium containing 2.5 μM of TRIP for 24 hours. (A, C) IFN-γ and (B, D) IL-2 mRNA expression levels were detected by qRT-PCR and normalized with the expression of GAPDH. *p<0.05, **p<0.01, ***p<0.001.
FIG. 4. Effects of calmodulin, PI3K and MAPK inhibition on TRIP-induced expression of IFN-γ and IL-2 in human Jurkat cells in vitro. Jurkat cells (2×10^6) were pretreated with PD98059 (50 μM), TFP (10 μM) and LY294002 (25 μM) for 1 hour, then incubated with medium containing 2.5 μM of TRIP for 24 hours. (A) IFN-γ and (B) IL-2 mRNA expression levels were detected by qRT-PCR and normalized with the expression of GAPDH. **p<0.01, ***p<0.001, ****p<0.0001.
The potential immune regulating effects of TRIP and the possible mechanism(s) involved were determined with in vitro experiments examining the expression of T cell activating cytokines in human acute T cell leukemia Jurkat cells. The expression of IFN-γ and IL-2 RNA following exposure to increasing concentrations of TRIP (i.e., ospemifene) were first examined, followed by the effects of combining tamoxifen with TRIP on the expression of these cytokines. Different inhibitors of key T cell activation pathways—trifluoperazine (TFP), an inhibitor of calmodulin, LY294002, an inhibitor of PI3K, and PD98059, a MAPK inhibitor—in combination with TRIP were assessed for their effects on TRIP-induced expression of IFN-γ and IL-2 in Jurkat cells.
Jurkat cells (2.0×10^6) were treated with different concentrations of TRIP as indicated on the x-axis for 24 hours. (A) IFN-γ and (B) IL-2 mRNA expression levels were detected by quantitative real-time polymerase chain reaction (qRT-PCR) and normalized with the expression of GAPDH. *p<0.05, **p<0.01, ***p<0.001.
T cell activation requires multiple signals including PI3K, MAPK and calcium signaling pathways, and in order to identify the potential mechanism through which TRIP affects immune activation, Jurkat cells (2.0×10^6) were pretreated with different concentrations of TFP (0, 0.1, 1.0, 5.0 and 10.0 μM) (A, B) or LY294002 (0, 1, 5, 10 and 25 μM) (C, D) for one hour, then incubated with medium containing 2.5 μM TRIP for 24 hours. IFN-γ and IL-2 expression levels were detected by qRT-PCR and normalized with the expression of GAPDH. *p<0.05, **p<0.01, ***p<0.001.
Jurkat cells (2×10^6) were pretreated with PD98059 (50 μM), TFP (10 μM) or LY294002 (25 μM) for one hour, then incubated with medium containing 2.5 μM TRIP for 24 hours. (A) IFN-γ and (B) IL-2 mRNA expression levels were detected by qRT-PCR and normalized with expression of GAPDH. **p<0.01, ***p<0.001, ****p<0.0001.
The effects on T cell activation of different functional group substitutions on the TRIP chemical structure (Formula Ia) were examined by measuring the expression of IFN-γ and IL-2 RNA in human acute T cell leukemia Jurkat cells in vitro.
A strong increase is defined as a ≥50% increase compared to the control. A moderate increase is defined as a 25-49% increase compared to the control. A weak increase is defined as a 0-24% increase compared to the control. No effect is when there was no increase compared to the control.

[3] = tested on: pro-inflammatory cytokines (IL-6, IP-10, MIG, IL-1β, KC)
Experimental: Serum was analyzed by multiplex immunoassay 24 hours following the last dose of TRIP at each time point.
as §1
Terminal serum pro-inflammatory cytokines (IL-6, IP-10, MIG, IL-1β, KC) were analyzed 24 hours after the last dose at each time point (FIG. 7).

**Q.** Which “T cell immune response by ELISpot to the target antigen (BP25), PV in combination with TRIP” value (IFN-γ [1]) does the source give for `OCCOc1ccc(/C(=C(/CCCl)c2ccccc2)c2ccccc2)cc1` [TRIP, Z-2-[4-(4-chloro-1,2-diphenyl-but-1-enyl)-phenoxy]ethanol] here?
**A.** specific IFN-γ responses

**Q.** What about the “T cell immune response by ELISpot, PV in combination with TRIP compared to PV alone” value (IFN-γ [1]) of the same compound?
**A.** increased immune response

**Q.** What about the “PV-induced immune response as assessed by Treg expression” value (regulatory T cell (Treg)) of the same compound?
**A.** did not significantly affect

**Q.** And the “serum IFN-γ” value (IFN-γ [2])?
**A.** elevated

**Q.** What about the “IL-2 RNA expression compared to control” value (IL-2; Jurkat cells, different concentrations of TRIP, 24 hours, dose-dependent (FIG. 1B)) of the same compound?
**A.** significantly induced

**Q.** And the “IL-2 Expression” value (IL-2; mRNA in Jurkat cells in vitro, relative to control sample without TRIP compound)?
**A.** +++ (strong increase)

**Q.** What about the “pro-inflammatory serum cytokine levels” value ([3]; TRIP 5, 25, 50 mg/kg daily oral, 30, 60, 90 days, compared to control group) of the same compound?
**A.** decreasing levels

**Q.** And the “serum IL-6 levels, control vs all doses of TRIP” value ([3]; at 28 weeks (90 days of treatment))?
**A.** Differences
